In paper PMC4255142 (Bioorganic & medicinal chemistry letters, 2014):

Key:
[1] = target: T1, holocarboxylase synthetase (HLCS) (Homo sapiens, UniProt P50747); experiment: Competition studies with biotin; assay type: biochemical; details: for Mechanism of HLCS inhibition: competition studies with biotin; for apparent Vmax with inhibitor: 250 μM inhibitor, biotin varied 0-320 μM, n=4
T1 sequence (P50747 1-726): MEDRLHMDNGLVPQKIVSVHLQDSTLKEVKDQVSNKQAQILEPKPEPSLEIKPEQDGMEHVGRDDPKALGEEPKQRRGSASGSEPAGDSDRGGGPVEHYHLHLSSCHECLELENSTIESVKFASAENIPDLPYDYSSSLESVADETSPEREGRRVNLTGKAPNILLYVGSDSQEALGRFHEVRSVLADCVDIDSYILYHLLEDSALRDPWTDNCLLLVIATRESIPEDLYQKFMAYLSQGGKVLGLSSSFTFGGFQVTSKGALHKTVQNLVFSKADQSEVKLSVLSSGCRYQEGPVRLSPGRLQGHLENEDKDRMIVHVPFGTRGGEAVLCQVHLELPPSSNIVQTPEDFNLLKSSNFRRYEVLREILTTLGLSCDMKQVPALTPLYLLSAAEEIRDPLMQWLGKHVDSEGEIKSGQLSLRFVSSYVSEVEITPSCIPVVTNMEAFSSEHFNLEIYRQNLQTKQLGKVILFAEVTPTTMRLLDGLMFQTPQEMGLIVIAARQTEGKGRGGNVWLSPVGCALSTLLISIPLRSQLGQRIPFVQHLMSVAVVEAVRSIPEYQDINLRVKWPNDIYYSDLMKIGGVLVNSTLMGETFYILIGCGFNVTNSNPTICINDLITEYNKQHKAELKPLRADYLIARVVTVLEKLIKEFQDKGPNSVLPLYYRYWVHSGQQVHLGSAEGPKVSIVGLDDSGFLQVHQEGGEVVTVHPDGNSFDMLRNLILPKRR

[2] = target: T1, holocarboxylase synthetase (HLCS); experiment: Inhibition of HLCS-catalysed biotinylation of recombinant p67; assay type: biochemical; details: data not shown

Row | Compound | Mechanism of HLCS inhibition [1] | Mechanism of HLCS inhibition ([1]; listed as Biotinol-AMP) | apparent Vmax with inhibitor [1] | Mechanism of HLCS inhibition ([1]; listed as β-HydroxyP) | Mechanism of HLCS inhibition ([1]; listed as β-KetoP) | HLCS inhibition (negative control, in words) [2]
1 | Nc1ncnc2c1ncn2[C@@H]1O[C@H](COP(=O)(O)OCCCCC[C@@H]2SC[C@@H]3NC(=O)N[C@@H]32)[C@@H](O)[C@H]1O [biotinol-5'-AMP, biotinol-5′-AMP, reference compound] | mixed | mixed inhibitor | – | – | – | –
2 | N.Nc1ncnc2c1ncn2[C@@H]1O[C@H](COP(=O)(O)CC(O)CCCC[C@@H]2SC[C@@H]3NC(=O)N[C@@H]32)[C@@H](O)[C@H]1O (stereo partly drawn) [β-hydroxyP, biotin β-hydroxyphosphonate-5′-AMP] | competitive | – | 20.6±1.8 pmol biotinylated p67/(nmol HLCS x s) | competitive inhibitor | – | –
3 | N.Nc1ncnc2c1ncn2[C@@H]1O[C@H](COP(=O)(O)CC(=O)CCCC[C@@H]2SC[C@@H]3NC(=O)N[C@@H]32)[C@@H](O)[C@H]1O [β-ketoP, biotin β-ketophosphonate-5′-AMP] | competitive | – | 31.5±1.6 pmol biotinylated p67/(nmol HLCS x s) | – | competitive inhibitor | –
4 | COP(=O)(O)CC(=O)CCCC[C@@H]1SC[C@@H]2NC(=O)N[C@@H]21 [compound 3] | – | – | – | – | – | did not inhibit HLCS
